In patent US20240374612A1, “IMIDAZOBENZO[…] TREATMENT OF COGNITIVE AND MOOD SYMPTOMS” (UWM Research Foundation, Inc., priority 2021, published 2024):
“Also recorded” adds a separate entry of the source.

Columns and labels:
[1] = tested on: mice (anxiety like behaviors); test: Elevated plus maze (EPM); type: in vivo; conditions: vs vehicle
Protocol: The EPM is commonly used in preclinical rodent models to assess anxiety-like behaviors. Briefly, mice are placed in a cross-shaped maze raised at 55 cm from the floor, with 2 open arms facing each other, and 2 closed arms facing each other. During testing, mice are individually placed in the center of the maze facing an open arm and allowed to explore for 10 minutes. Throughout testing, the exploration of each mouse is recorded using a digital camera mounted on the ceiling. After 10 minutes of exploration, the camera is stopped and the mouse is removed from the maze and returned to its home cage. The videos are analyzed using Ethovision XT14 software. Specific parameters considered are: % time spent in the open arms, calculated using ([(total time spent in open arms)/(total time spent in open arms+total time spent in closed arms)]*100) and the number of open arm entries.

[2] = tested on: C57/Bl6 mice subjected to chronic restraint stress (working memory deficit); test: Y-maze alternation task after chronic restraint stress (CRS); type: in vivo; conditions: acute, 30 min before testing, vs CRS vehicle
Protocol: Young Animals and chronic stress procedure: C57/Bl6 mice, males and females at 8 weeks old and are kept in normal housing conditions (12 h light ON cycle starting at 7 am/water and food ad libitum) for one week. During this week, animals are single housed and handled to reduce the anxiety-like response toward the experimenter. To induce a working memory deficit, mice are subjected to a chronic restraint stress protocol (CRS). They are placed in a 50 mL Falcon® tube, twice a day, for 1 hour during their diurnal cycle. The time of occurrence of the stress is randomized every day to avoid predictability. CRS is not applied on testing days. Y-maze test occurs 15 hours minimum after the last stressor.
Protocol: Mice are first habituated to the Y-maze apparatus and distal cues during 2 consecutive days over a 10 min free exploration session (one session per day). The next day, animals perform a training session consisting in seven successive trials separated by a 30 s inter-trial interval (ITI); during this training session, mice are familiarized with the experimental procedure (opening and closing of the doors and confinement into the goal arms). For each trial, mice remain in the start-box for a 30 s ITI. Then, the door is opened and the mouse is allowed to enter freely one of the two goal arms; the chosen arm is closed and the choice is recorded. After a 30 s confinement period into the chosen arm, the mouse is removed and brought back to the start-box for a second trial identical to the first one and this procedure is repeated over the series of trials.
The same general procedure used in the training session is implemented 24 h later, except that the ITI was lengthened to 90 s. For this experiment, animals are acutely injected i.p. with vehicle or drug, 30 minutes before the beginning of the test. To dissociate memory deficits from an eventual progressive loss of motivation to alternate over the series, an 8th trial is added to the series which is separated from the 7th trial by a shorter ITI (5 s). All animals failing to alternate at the 8th trial are excluded. The mean alternation rate is calculated and is expressed in percentage (number of alternation done by the animal/total number of alternation possible×100)±SEM. The percentage of alternation during the entire task is considered as an index of working memory performance (50% of being a random alternation rate). Factorial ANOVA is applied to the data to reveal differences between groups. If the ANOVA is significant for group effect (p<0.05), Scheffe post-hoc analysis are conducted to identify which groups are different from each other.
Drug preparation and administration: All drugs are diluted in a vehicle solution containing 85% H2O, 14% propylene glycol (Sigma Aldrich) and 1% Tween 80 (Sigma Aldrich). Working solutions are prepared at a concentration of 10 mg/mL and administered i.p. adjusted to the body weight of each animal. Doses used are either 1, 5, 10 or 20 mg/kg. For all Y maze experiments, animals are acutely injected i.p. with vehicle or drug, 30 minutes before the beginning of the test.

[3] = 3 mg/kg i.p., 30 min before testing

C#Cc1ccc2c(c1)C(c1ccccc1Cl)=N[C@H](C)c1c(-c3nc(CC)no3)ncn1-2 [PM-II-84E, (R)-5-(6-(2-chlorophenyl)-8-ethynyl-4-methyl-4H-benzo[f]imidazo[1,5-a][1,4]diazepin-3-yl)-3-ethyl-1,2,4-oxadiazole]
time spent in the open arms (EPM) ([1]; 10 mg/kg i.p., 30 min before testing): significant effect; also recorded: increasing time spent in the open arms
distance travelled in the open arms (EPM) ([1]; 10 mg/kg i.p.): trend level effect
reversal of CRS-induced reduction of alternation rate (Y-maze) ([2]; 30 mg/kg i.p.): reversed

C#Cc1ccc2c(c1)C(c1ccccc1Cl)=N[C@@H](C)c1c(-c3nc(C)no3)ncn1-2 [FR-PM-III-57S, (S)-5-(6-(2-chlorophenyl)-8-ethynyl-4-methyl-4H-benzo[f]imidazo[1,5-a][1,4]diazepin-3-yl)-3-methyl-1,2,4-oxadiazole]
reversal of CRS-induced reduction of alternation rate (Y-maze) ([2]; 10 mg/kg i.p.): significantly reversed; also recorded: significantly improved alternation rate
reversal of CRS-induced reduction of alternation rate (Y-maze) ([2]; 30 mg/kg i.p.): trend level effect

C#Cc1ccc2c(c1)C(c1ccccn1)=N[C@@H](C)c1c(C(=O)NC)ncn1-2 [MYM-III-29, (S)-8-ethynyl-N,4-dimethyl-6-(pyridin-2-yl)-4H-benzo[f]imidazo[1,5-a][1,4]diazepine-3-carboxamide]
distance travelled in the open arms (EPM) ([1]; 10 mg/kg i.p.): increasing distance travelled in the open arms
reversal of CRS-induced reduction of alternation rate (Y-maze) ([2]; 3 mg/kg i.p.): no significant difference between groups
reversal of CRS-induced reduction of alternation rate (Y-maze) ([2]; 10 mg/kg i.p.): reversed (p<0.05)

C[C@H]1N=C(c2ccccc2F)c2cc(Cl)ccc2-n2cnc(-c3nc(C4CC4)no3)c21 [MYM-IV-47, (R)-5-(8-chloro-6-(2-fluorophenyl)-4-methyl-4H-benzo[f]imidazo[1,5-a][1,4]diazepin-3-yl)-3-cyclopropyl-1,2,4-oxadiazole]
reversal of CRS-induced reduction of alternation rate (Y-maze) ([2]; 3 mg/kg i.p.): no significant effect
reversal of CRS-induced reduction of alternation rate (Y-maze) ([2]; 10 mg/kg i.p.): significantly reversed
reversal of CRS-induced reduction of alternation rate (Y-maze) ([2]; 30 mg/kg i.p.): significantly reversed

CC(C)c1noc(-c2ncn3c2[C@@H](C)N=C(c2ccccc2F)c2cc(Cl)ccc2-3)n1 [MYM-IV-46, (R)-5-(8-chloro-6-(2-fluorophenyl)-4-methyl-4H-benzo[f]imidazo[1,5-a][1,4]diazepin-3-yl)-3-isopropyl-1,2,4-oxadiazole]
reversal of CRS-induced reduction of alternation rate (Y-maze) ([2]; 3 mg/kg i.p.): no significant effect
reversal of CRS-induced reduction of alternation rate (Y-maze) ([2]; 10 mg/kg i.p.): significantly reversed; also recorded: improved alternation rate
reversal of CRS-induced reduction of alternation rate (Y-maze) ([2]; 30 mg/kg i.p.): trend level effect

Cc1noc(-c2ncn3c2[C@@H](C)N=C(c2ccccc2F)c2cc(Br)ccc2-3)n1 [GL-III-60, (R)-5-(8-Bromo-6˜(2-fluorophenyl)-4-methyl-4H-benzo[f]imidazo[1,5-a][1,4]diazepin-3-yl)-3-methyl-1,2,4-oxadiazole]
reversal of CRS-induced reduction of alternation rate (Y-maze) ([2]; 10 mg/kg i.p.): reversed
reversal of CRS-induced reduction of alternation rate (Y-maze) ([2]; 30 mg/kg i.p.): reversed

C#Cc1ccc2c(c1)C(c1ccccc1Cl)=N[C@H](C)c1c(C(=O)N(C)C)ncn1-2 [PM-II-26, (R)-6-(2-chlorophenyl)-8-ethynyl-N,N,4-trimethyl-4H-benzo[f]imidazo[1,5-a][1,4]diazepine-3-carboxamide]
reversal of CRS-induced reduction of alternation rate (Y-maze) ([2]; 10 mg/kg i.p.): reversed (p<0.001)
reversal of CRS-induced reduction of alternation rate (Y-maze) ([2]; 30 mg/kg i.p.): a trend was observed; also recorded: reversed (trend: p=0.1)

C#Cc1ccc2c(c1)C(c1ccccc1Cl)=N[C@@H](C)c1c(C(=O)NC)ncn1-2 [FR-III-17, (S)-6-(2-chlorophenyl)-8-ethynyl-N,4-dimethyl-4H-benzo[f]imidazo[1,5-a][1,4]diazepine-3-carboxamide]
% distance traveled in the open arms (EPM) [1, 3]: significantly increase
% entries in the open arms (EPM) [1, 3]: significantly increase
% time in the open arms (EPM) [1, 3]: significantly increase
reversal of CRS-induced reduction of alternation rate (Y-maze) ([2]; 0.3 mg/kg i.p.): significantly reversed
reversal of CRS-induced reduction of alternation rate (Y-maze) ([2]; 1 mg/kg i.p.): significantly reversed
reversal of CRS-induced reduction of alternation rate (Y-maze) ([2]; 3 mg/kg i.p.): significantly reversed

C#Cc1ccc2c(c1)C(c1ccccc1Cl)=N[C@H](C)c1c(-c3nc(C)no3)ncn1-2 [PM-III-57R, (R)-5-(6-(2-chlorophenyl)-8-ethynyl-4-methyl-4H-benzo[f]imidazo[1,5-a][1,4]diazepin-3-yl)-3-methyl-1,2,4-oxadiazole]
reversal of CRS-induced reduction of alternation rate (Y-maze) ([2]; 10 mg/kg i.p.): significantly reversed; also recorded: significantly improved alternation rate

C#Cc1ccc2c(c1)C(c1ccccc1F)=N[C@H](C)c1c(-c3nc(C4CC4)no3)ncn1-2 [MYM-V-28, (R)-3-cyclopropyl-5-(8-ethynyl-6-(2-fluorophenyl)-4-methyl-4H-benzo[f]imidazo [1,5-a][1,4]diazepin-3-yl)-1,2,4-oxadiazole]
reversal of CRS-induced reduction of alternation rate (Y-maze) ([2]; 10 mg/kg i.p.): significantly reversed; also recorded: significantly improved alternation rate
reversal of CRS-induced reduction of alternation rate (Y-maze) ([2]; 30 mg/kg i.p.): significantly reversed; also recorded: significantly improved alternation rate

CCc1noc(-c2ncn3c2[C@@H](C)N=C(c2ccccc2F)c2cc(C4CC4)ccc2-3)n1 [GL-IV-03, (R)-5-(8-Cyclopropyl-6-(2-fluorophenyl)-4-methyl-4H-benzo[f]imidazo[1,5-a][1,4]diazepin-3-yl)-3-ethyl-1,2,4-oxadiazole]
reversal of CRS-induced reduction of alternation rate (Y-maze) ([2]; 3 mg/kg i.p.): reversed
reversal of CRS-induced reduction of alternation rate (Y-maze) ([2]; 30 mg/kg i.p.): reversed

C[C@H]1N=C(c2ccccc2F)c2cc(-c3ccccc3)ccc2-n2cnc(C(=O)N(C)C)c21 [MYM-III-41, (R)-6-(2-fluorophenyl)-N,N,4-trimethyl-8-phenyl-4H-benzo[f]imidazo[1,5-a][1,4]diazepine-3-carboxamide]
reversal of CRS-induced reduction of alternation rate (Y-maze) ([2]; 5 mg/kg i.p.): reversed
reversal of CRS-induced reduction of alternation rate (Y-maze) ([2]; 10 mg/kg i.p.): reversed

CCc1noc(-c2ncn3c2CN=C(c2ccccc2F)c2cc(C4CC4)ccc2-3)n1 [MYM-III-43, 5-(8-cyclopropyl-6-(2-fluorophenyl)-4H-benzo[f]imidazo[1,5-a][1,4]diazepin-3-yl)-3-ethyl-1,2,4-oxadiazole]
reversal of CRS-induced reduction of alternation rate (Y-maze) ([2]; 3 mg/kg i.p.): reversed
reversal of CRS-induced reduction of alternation rate (Y-maze) ([2]; 10 mg/kg i.p.): reversed
reversal of CRS-induced reduction of alternation rate (Y-maze) ([2]; 30 mg/kg i.p.): reversed
